Values belong to the compound of their own block, whether it stands above or below them.
Columns and labels:
[1] = tested on: retinoic acid oxidation (cytochrome P450 systems); assay: Assay for NADPH Dependent Retinoic Acid Oxidation, liver microsomes; assay type: biochemical, rat; conditions: for % Inhibition Retinoic Acid (10 μM): 10 μM compound; for % Inhibition Retinoic Acid (100 μM): 100 μM compound
[2] = tested on: ARAT; assay: Assay for ARAT activity, RPE microsomes; assay type: biochemical, bovine; conditions: 100 μm compound
[3] = Retinol stability in the presence of boosters (OD 360 nm); assay type: physicochemical; conditions: booster approximately 0.1%, 60 hours at room temperature in the dark, approx. 50% aqueous ethanol
Protocol: Retinol (50% in tween 80) was dissolved in approximately 50% aqueous ethanol to provide a solution giving an OD at 360 nm of approximately 0.6 when measured in a 200 μl volume in a 96 well plate using a standard 96 well spectrophotometer.
Booster molecules were added at approximately 0.1% concentration and the OD 360 measured as above immediately and after 60 hours at room temperature in the dark. A correction was applied to the OD after 60 hours (divide by 0.85) to account for increased concentration of the retinol due to evaporation of solvent from the plate.

[4] = molecular target: TGase I; assay: Transglutaminase (TGase I ELISA) assay in cultured keratinocytes; assay type: cell-based; conditions: booster in combination with a constant retinol concentration of 10^−7M; read-out: Overall TG (IC 50)
[5] = molecular target: T1, LRAT (Bos taurus, UniProt Q9BGL2); assay: Assay for LRAT activity, RPE microsomes; assay type: biochemical, bovine; conditions: 100 μm compound
T1 construct: followed by approximately 15 μg of RPE microsomal protein; tissue W. L. Lawson Co., Lincoln, Nebr; host or cells: bovine retinal pigment epithelium microsomes
T1 sequence (Q9BGL2 1-230): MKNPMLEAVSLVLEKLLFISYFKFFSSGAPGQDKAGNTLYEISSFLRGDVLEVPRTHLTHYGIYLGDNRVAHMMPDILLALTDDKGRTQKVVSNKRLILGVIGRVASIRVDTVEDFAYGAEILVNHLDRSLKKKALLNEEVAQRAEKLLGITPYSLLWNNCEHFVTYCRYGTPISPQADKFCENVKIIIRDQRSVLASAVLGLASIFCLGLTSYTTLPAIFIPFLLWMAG

[6] = tested on: CRABP-II; assay: CRABP-II expression in adult fibroblasts (dot blot); assay type: cell-based, human; conditions: for CRABP-II production: 48 hours; for % as Control: control as 100%

Compound: CCN(CC)CC(=O)Nc1c(C)cccc1C [Lidocaine, reference compound]
% Inhibition ARAT (100 μm) [2]: 12%

Compound: CCCCC/C=C\C/C=C\CCCCCCCC(=O)NCCCN(C)C [Linoleamidopropyl Dimethylamine]
% Inhibition ARAT (100 μm) [2]: 69% +/− 18

Compound: CCCCC/C=C\C/C=C\CCCCCCCC(=O)NCCO [Linoleoyl Monoethanolamide]
IC50 [4]: 16.1 µM

Compound: CC(C)(O)CCCC1=CCC(C=O)CC1 (stereo not shown) [Lyral]
% Inhibition ARAT (100 μm) [2]: 76%

Compound: CCCCC/C=C/C/C=C/CCCCCCCC(=O)NC(C)c1ccccc1 (stereo not shown) [Melinamide, reference compound]
% Inhibition ARAT (100 μm) [2]: 64% +/− 15

Compound: CCCCCCCCCCCCCC(=O)N(C)CC(=O)O [Myristoyl Sarcosine]
% Inhibition ARAT (100 μm) [2]: 41% +/− 14

Compound: O=C1C[C@@H](c2ccc(O)cc2)Oc2cc(O)cc(O)c21 [Naringenin]
% Inhibition ARAT (100 μm) [2]: 33%

Compound: CC1=C(/C=C/C(C)=C/C=C/C(C)=C/C(=O)O)C(C)(C)CCC1 [Retinoic acid, reference compound]
CRABP-II production ([6]; 1 nM retinoid alone): 0.97+/−0.47
% as Control ([6]; 1 nM retinoid alone): 335+/−162%
CRABP-II production ([6]; 10 nM retinoid alone): 1.24+/−0.29
% as Control ([6]; 10 nM retinoid alone): 428+/−101%

Compound: CC(=O)OC/C=C(C)/C=C/C=C(C)/C=C/C1=C(C)CCCC1(C)C [Retinyl Acetate]
CRABP-II production ([6]; 100 nM retinoid alone): 0.60+/−0.32
% as Control ([6]; 100 nM retinoid alone): 209+/−118%

Compound: CCCCC/C=C\C/C=C\CCCCCCCC(=O)OC/C=C(C)/C=C/C=C(C)/C=C/C1=C(C)CCCC1(C)C [Retinyl Linoleate]
CRABP-II production ([6]; 100 nM retinoid alone): 0.52+/−0.3
% as Control ([6]; 100 nM retinoid alone): 181+/−110%

Compound: CCCCCCCCCCCCCCCC(=O)OC/C=C(C)/C=C/C=C(C)/C=C/C1=C(C)CCCC1(C)C [Retinyl Palmitate]
CRABP-II production ([6]; 100 nM retinoid alone): 1.26+/−0.51
% as Control ([6]; 100 nM retinoid alone): 434+/−177%

Compound: CC(=O)c1cc2c(cc1C)C(C)(C)C(C)CC2(C)C (stereo not shown) [Tonalid]
% Inhibition ARAT (100 μm) [2]: 50%

Compound: CC(=O)c1cc2c(cc1C)C(C)(C)[C@H](C)[C@H]2C(C)C [Traseolide]
% Inhibition ARAT (100 μm) [2]: 41%

Compound: Coco Trimethylammonium Cl-
% Inhibition ARAT (100 μm) [2]: 27%

Compound: DAMASCONE
FOLD INCREASE IN RATE OF RETINOL LOSS [3]: 3.7 fold

Compound: Hydroxyquinoline (Carbostyril)
IC50 [4]: 364 µM

The next lines start with results.

% Inhibition Retinoic Acid (10 μM) [1]: 84%
% Inhibition Retinoic Acid (100 μM) [1]: 84%
Compound: CC(=O)N1CCN(c2ccc(OCC3COC(Cn4ccnc4)(c4ccc(Cl)cc4Cl)O3)cc2)CC1 (stereo not shown) [Ketoconazole]

FOLD INCREASE IN RATE OF RETINOL LOSS [3]: 2.6 fold
Compound: CCCCCCCCCCCC(=O)N(C)CC(=O)O [Lauroyl Sarcosine]
% Inhibition ARAT (100 μm) [2]: 20%

IC50 [4]: 0.467 µM
Compound: CCCCCCCCCCCC1=NCCN1CCO [Lauryl Hydroxyethylimidazoline]

% Inhibition Retinoic Acid (10 μM) [1]: 74%
% Inhibition Retinoic Acid (100 μM) [1]: 86%
Compound: Clc1ccc(COC(Cn2ccnc2)c2ccc(Cl)cc2Cl)c(Cl)c1 (stereo not shown) [Miconazole]

IC50 [4]: 28 µM
Compound: CCCCCCCC/C=C\CCCCCCCC[N+](C)(C)CC(=O)[O-] [Oleyl Betaine]
% Inhibition ARAT (100 μm) [2]: 47%

IC50 [4]: 30.2 µM
Compound: CCCCCCCC/C=C\CCCCCCCC1=NCCN1CCO [Oleyl Hydroxyethylimidazoline]

% Inhibition LRAT (100 μm) [5]: 37%
Compound: CC(=O)/C=C/C=C(\C)CCC=C(C)C [Pseudoionone]

% Inhibition Retinoic Acid (10 μM) [1]: 40%
% Inhibition Retinoic Acid (100 μM) [1]: 74%
Compound: O=c1c(O)c(-c2ccc(O)c(O)c2)oc2cc(O)cc(O)c12 [Quercetin]

% Inhibition LRAT (100 μm) [5]: 12%
Compound: CC(=O)C1(C)C2CC3C(C2)C31C (stereo not shown) [Santalone]
% Inhibition ARAT (100 μm) [2]: 23%

% Inhibition LRAT (100 μm) [5]: 33%
Compound: CCCC(O)CCC1C(C)CCCC1(C)C (stereo not shown) [Timberol]

FOLD INCREASE IN RATE OF RETINOL LOSS [3]: 1.9 fold
Compound: COCAMIDE DEA

IC50 [4]: 32.5 µM
Compound: Castor Oil MEA

% Inhibition LRAT (100 μm) [5]: 68%
Compound: Coco Hydroxyethylimidazoline

% Inhibition LRAT (100 μm) [5]: 34%
Compound: Cocoyl Monoethanolamide
% Inhibition ARAT (100 μm) [2]: 13%

% Inhibition LRAT (100 μm) [5]: 58% +/− 2
Compound: Glycerol-PCA-Oleate
% Inhibition ARAT (100 μm) [2]: 41% +/− 6

% Inhibition LRAT (100 μm) [5]: 45%
Compound: Isobutyl Ionone
% Inhibition ARAT (100 μm) [2]: 8%

% Inhibition LRAT (100 μm) [5]: 43%
Compound: Santanol
% Inhibition ARAT (100 μm) [2]: 15%

— patent US20020143059A1, “Skin care product containing retinoids, retinoid booster and phytoestrogens in a dual compartment package” (priority 2000, published 2002)
